# Assay results as given in patent publication US9314446B2, “Sustained releasing pharmaceutical composition” (priority 2013, dated 2016).
# Experiment: In-vitro release of diclofenac (dialysis bag, PBS, absorbance 300 nm)
# Assay type: physicochemical
# Settings: 1 mg/ml, PBS 37° C.
# Method: In-vitro experiment on agent release of hydrogel is designed to simulate its in-vivo effect. The 500 μg/ml latanoprost-loaded solution were added to the transwell (100 μl/well) mounted on 24-well plates, and 1.5 ml PBS was added in each well and then incubated at 37° C. The 1.5 ml PBS was collected and another 1.5 ml PBS was then replenished at each time (Days 1, 7, 14 and 28). The amount of latanoprost was analyzed by a LC-MS/MS system equipped with an electrospray ionization source. The LC-MS/MS consisted of a Sciex API 3000 tandem mass spectrometer and Agilent 1100 series LC system. Separation of latanoprost was achieved by using a Phenomenex Luna C18 column (particle size 5 um, 50 mm×4.6 mm i.d.). The mobile phase consisted of latanoprost was (A) 0.1% (v/v) formic acid and (B) acetonitrile containing 0.1% formic acid (A:B=7:3, v/v) and delivered at 0.3 ml per minute. The mass spectrometer was operated in positive mode which used multiple reaction monitoring. The precursor to produce ion transition of m/z 374.2→195.2 was monitored. In another experiment, the dialysis bags with molecular weight cut-off of 1 kD were used to retain the diclofenac-loaded hydrogel and allow the released diclofenac to permeate into the release medium (PBS). Briefly, 800 μl diclofenac-loaded hydrogel (1 mg/ml) or diclofenac only (1 mg/ml) was added to a dialysis bag. The sample-loaded dialysis bag was immersed in 30 ml of PBS at 100 rpm and 37° C. At fixed time intervals, the release medium was collected and replaced with an equal amount of PBS. According to the absorption curve of diclofenac, the diclofenac content of the each sample was analyzed by Tecan's Infinite® M 1000 spectrophotometer at the wavelength of 300 nm. […] The percentage of cumulative release at 1, 7, 14 and 28 days were 1.34±0.33, 26.80±5.40, 45.03±2.55 and 67.72±4.25%, respectively. Additives in hydrogel affect its composition, structure and may also change its drug releasing characteristics. […] The percentage of cumulative release of 1 mg/ml diclofenac only group at 5, 18, 24, 48, 75 and 140 hours was 106.08±10.48, 99.34±6.57, 106.62±13.76, 102.28±7.40, 105.75±5.76 and 112.14±7.05%.
smiles,measurement,setting,value
O=C(O)Cc1ccccc1Nc1c(Cl)cccc1Cl [diclofenac],cumulative release of diclofenac,5 hours,106.08±10.48%
same,cumulative release of diclofenac,18 hours,99.34±6.57%
same,cumulative release of diclofenac,24 hours,106.62±13.76%
same,cumulative release of diclofenac,48 hours,102.28±7.40%
same,cumulative release of diclofenac,75 hours,105.75±5.76%
same,cumulative release of diclofenac,140 hours,112.14±7.05%
